The values that follow come from US20120231083A1, “SUSTAINED RELEASE CANNABINOID MEDICAMENTS” (The Board of Trustees of the University of Illinois, priority 2010, published 2012).

The conditions of data set [1]: described in US 2007/0072939; not shown for sleep related disorders; cited from earlier work.
The test system of the next data set is rat model of sleep apnea. The conditions noted are these: 10 mg/kg intraperitoneal, US 2004/0127572; cited from earlier work.
The conditions of data set [2]: cited from earlier work.
A further data set concerns subjects. The experiment in a line: Oral dosing comparator 1: single immediate release dosage, AHI. Type of data set: in vivo, human. The procedure: (§1) For the purpose of comparing oral medicaments (i.e., providing a comparator), a medicament is orally administered to one or more subjects. The various factors affecting ADME (absorption, distribution, metabolism, and excretion) of the drug are standardized. For example, the patient is optionally a fasted patient and optionally falls asleep within one of 15 minutes or 30 minutes of laying down for bed. The same subjects are used for comparing different medicaments (after providing an appropriate wash-out period).
(§2) Plasma levels of the drug (e.g. THC) and metabolites thereof (e.g. 11-OH-THC) are taken at regular intervals (e.g. every 30 minutes) during a treatment window (e.g. from T0 to T8hr).
(§3) Therapeutic responses are recorded throughout the entire treatment window.
(§4) Therapeutic responses are correlated with pharmacokinetic parameters of the drug or metabolites thereof. The pharmacokinetic parameters include one or more of: plasma concentration and AUC (at various times).
An oral dosing “comparator” is provided by orally administering an immediate release dosage of cannabinoid (e.g. MARINOL® soft gel).

The conditions of data set [3]: in vivo; cited from earlier work.
The next data set concerns sleep apnea patient. The experiment in a line: Oral dosing comparator 2: two immediate release dosages in succession (T0 and T3), AHI. The conditions noted are these: immediate release dosages at T0 and T3. Type of data set: in vivo, human. The procedure: as §1, §2, §3, §4
A second oral dosing comparator is provided by the method of Example 6, where a first immediate release dosage of cannabinoid (e.g. 2.5 mg MARINOL® soft gel) to a sleep apnea patient 30 minutes before bed at To. The patient is allowed to fall asleep and at a predetermined time, the subject is briefly woken to receive a second immediate release dosage of MARINOL® soft gel (e.g. at T3) and allowed to return to sleep.

Read-outs that look alike come from different tables or passages of the source.

Consider `CCCCCc1cc(O)c2c(c1)OC(C)(C)C1CCC(C)=CC21` (single isomer, unassigned) [trans-(+) enantiomer, trans-(+)-THC], for which the “activity compared to the trans-(−)-enantiomer” value in data set [1] is “about 1%”.
As for `CCCCCc1cc(O)c2c(c1)OC(C)(C)[C@@H]1CCC(C)=C[C@@H]21` [Dronabinol, Delta-9-tetrahydrocannabinol], in the data set with rat model of sleep apnea, the “breathing cessation during non-REM (NREM) sleep” value is reported as “reduced breathing cessation”. Besides, the “Side effects with co-administration” value in data set [2] (with antipyrine, barbiturates) was “Decreased clearance of these agents,”; in data set [2] (with atropine, scopolamine, antihistamines, other anticholinergic agents) it was “super-additive tachycardia, drowsiness”; in data set [2] (with barbiturates, benzodiazepines, ethanol, lithium, opioids, buspirone, antihistamines, muscle relaxants, other CNS depressants), “Additive drowsiness and CNS depression”; in data set [2] (with disulfiram, person who smoked marijuana), “reversible hypomanic reaction was reported”; in data set [2] (with fluoxetine 20 mg/day x 4 wks, person, smoking marijuana), “became hypomanic after smoking marijuana;”; in data set [2] (with theophylline, smoking of marijuana), “Increased theophylline metabolism reported”. Also, the therapeutic window entry in the data set with subjects (lower doses (e.g. 5 mg-20 mg)) was “does not consistently extend through the seventh or eighth hour of sleep”; in the data set with sleep apnea patient (lower doses (e.g. 5 mg-20 mg)), “generally extends through the seventh or eighth hour of sleep”. For the same compound, the AHI result with subjects (subjects receiving 1 to 75 mg) and with sleep apnea patient (subjects receiving 1 to 75 mg) was “improved” each time. Also, in data set [3], the “Side Effects, Digestive” value is reported as “Diarrhea*, fecal incontinence”. Further, the “Side Effects, Musculoskeletal” value in data set [3] is recorded as “Myalgias”. For the same compound, the “Side Effects, Skin and Appendages” value in data set [3] is recorded as “Flushing*”. The “Side Effects, Special senses” value in data set [3] is recorded as “Vision difficulties”.
